ChEMBL document CHEMBL1201862, “PubChem BioAssay data set” (2004)
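Protocol summary: plate cells (96-well), add compound at 5 concentrations, incubate 48 h, interpolate endpoints linearly. Here, GI50 denotes the concentration required for 50% inhibition of growth.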 Calls of active or inactive are those of the source. No stated cut-off is given here; in the data, active = GI50 up to about 1.1 µM and inactive = higher.

Key:
Assay in all cases: growth of human tumour cells (NCI), 48 h
[1] = tested on: CAKI-1
[2] = tested on: CCRF-CEM
[3] = tested on: EKVX
[4] = tested on: HCC 2998
[5] = tested on: HOP-62
[6] = tested on: HOP-92
[7] = tested on: HT-29
[8] = tested on: K562
[9] = tested on: KM12
[10] = tested on: MOLT-4
[11] = tested on: NCI-H522
[12] = tested on: OVCAR-4
[13] = tested on: OVCAR-8
[14] = tested on: RXF 393
[15] = tested on: SK-MEL-5
[16] = tested on: SN12C
[17] = tested on: SNB-19
[18] = tested on: SW-620
[19] = tested on: UO-31

| Compound | GI50 [1] | GI50 [2] | GI50 [3] | GI50 [4] | GI50 [5] | GI50 [6] | GI50 [7] | GI50 [8] | GI50 [9] | GI50 [10] | GI50 [11] | GI50 [12] | GI50 [13] | GI50 [14] | GI50 [15] | GI50 [16] | GI50 [17] | GI50 [18] | GI50 [19] |
| --- | --- | --- | --- | --- | --- | --- | --- | --- | --- | --- | --- | --- | --- | --- | --- | --- | --- | --- | --- |
| Cc1cc(O)c2c(=O)c3ccccc3[nH]c2c1 | 11.8 µM (inactive) | 24.1 µM (inactive) | 41.1 µM (inactive) | 37.3 µM (inactive) | 23.2 µM (inactive) | 25.9 µM (inactive) | 8.63 µM (inactive) | 9.77 µM (inactive) | 18.5 µM (inactive) | 36.3 µM (inactive) | 3.56 µM (inactive) | 15.1 µM (inactive) | 23 µM (inactive) | 27 µM (inactive) | 14.7 µM (inactive) | 32.5 µM (inactive) | 38.5 µM (inactive) | 41.6 µM (inactive) | – |
| CCOC(=O)CCc1c(C)c2ccc(O)cc2oc1=O | > 100 µM (inactive) | > 100 µM (inactive) | > 100 µM (inactive) | > 100 µM (inactive) | > 100 µM (inactive) | > 100 µM (inactive) | > 100 µM (inactive) | > 100 µM (inactive) | – | > 100 µM (inactive) | > 100 µM (inactive) | > 100 µM (inactive) | > 100 µM (inactive) | > 100 µM (inactive) | > 100 µM (inactive) | > 100 µM (inactive) | > 100 µM (inactive) | > 100 µM (inactive) | – |
| COc1ccc(/C=C/c2ccnc3ccccc23)cc1 | 17.7 µM (inactive) | 10.5 µM (inactive) | 13.1 µM (inactive) | 20.1 µM (inactive) | 20.5 µM (inactive) | 4.66 µM (inactive) | 10.4 µM (inactive) | 6.34 µM (inactive) | 16.5 µM (inactive) | 12.2 µM (inactive) | 17.5 µM (inactive) | 3.03 µM (inactive) | – | 19.3 µM (inactive) | 14.3 µM (inactive) | 18.6 µM (inactive) | 19.3 µM (inactive) | 17.7 µM (inactive) | 0.021 µM (active) |
| C=CCC1(O)c2cccc(O)c2C(=O)c2cccc(O)c21 (stereo not drawn) | 21.7 µM (inactive) | – | 17.4 µM (inactive) | 11 µM (inactive) | 21.4 µM (inactive) | 17.5 µM (inactive) | 22.1 µM (inactive) | 6.71 µM (inactive) | 17.3 µM (inactive) | 11.3 µM (inactive) | 9.86 µM (inactive) | 29.2 µM (inactive) | 25.8 µM (inactive) | 15.7 µM (inactive) | 10.7 µM (inactive) | – | – | 25.2 µM (inactive) | 15.4 µM (inactive) |
| [O-][S+]1c2ccccc2SCSc2ccccc21 | > 100 µM (inactive) | – | – | > 100 µM (inactive) | > 100 µM (inactive) | 14.8 µM (inactive) | > 100 µM (inactive) | 16.7 µM (inactive) | > 100 µM (inactive) | 66.5 µM (inactive) | > 100 µM (inactive) | > 100 µM (inactive) | > 100 µM (inactive) | > 100 µM (inactive) | 76.6 µM (inactive) | > 100 µM (inactive) | > 100 µM (inactive) | – | > 100 µM (inactive) |
| CCc1ccc(Cc2ccc(CC)c(NC(=O)C(=O)C3NC(=S)NC3=O)c2CC)c(CC)c1NC(=O)C(=O)C1NC(=S)NC1=O (stereo not drawn) | > 100 µM (inactive) | > 100 µM (inactive) | > 100 µM (inactive) | > 100 µM (inactive) | > 100 µM (inactive) | 38 µM (inactive) | – | > 100 µM (inactive) | > 100 µM (inactive) | > 100 µM (inactive) | > 100 µM (inactive) | > 100 µM (inactive) | > 100 µM (inactive) | > 100 µM (inactive) | > 100 µM (inactive) | – | > 100 µM (inactive) | > 100 µM (inactive) | 51.8 µM (inactive) |
| CCOP(=O)(CCC(O)CNc1nc(N)nc(Cl)c1/N=N/c1ccc(Cl)cc1)OCC (stereo not drawn) | 2.96 µM (inactive) | 5.75 µM (inactive) | 18.8 µM (inactive) | 13.3 µM (inactive) | 12.5 µM (inactive) | 0.377 µM (active) | 15.3 µM (inactive) | 13.6 µM (inactive) | 19.1 µM (inactive) | 6.95 µM (inactive) | 8.99 µM (inactive) | 5.24 µM (inactive) | 17.7 µM (inactive) | 6.31 µM (inactive) | 12.7 µM (inactive) | 17.2 µM (inactive) | – | 15.9 µM (inactive) | 4.1 µM (inactive) |
| Cc1cc(NS(=O)(=O)c2ccc(NC(=O)c3cccc4c(Nc5ccc(S(=O)(=O)N=C(N)N)cc5)c5ccccc5nc34)cc2)no1 | > 100 µM (inactive) | – | > 100 µM (inactive) | > 100 µM (inactive) | > 100 µM (inactive) | > 100 µM (inactive) | > 100 µM (inactive) | > 100 µM (inactive) | > 100 µM (inactive) | > 100 µM (inactive) | > 100 µM (inactive) | > 100 µM (inactive) | > 100 µM (inactive) | > 100 µM (inactive) | > 100 µM (inactive) | > 100 µM (inactive) | > 100 µM (inactive) | > 100 µM (inactive) | > 100 µM (inactive) |
| C/C(=N\NC(N)=S)c1nc2cccnc2[nH]1 | 33.5 µM (inactive) | 31.1 µM (inactive) | 50 µM (inactive) | > 66.1 µM (inactive) | 67.3 µM (inactive) | 98.2 µM (inactive) | 41.3 µM (inactive) | 71 µM (inactive) | 67.5 µM (inactive) | 34.8 µM (inactive) | > 68.5 µM (inactive) | 25.6 µM (inactive) | > 67 µM (inactive) | > 100 µM (inactive) | 47.3 µM (inactive) | > 100 µM (inactive) | > 76.7 µM (inactive) | 56.8 µM (inactive) | 24.9 µM (inactive) |
| COCN1C(=O)[C@@H]2CCCN2C(=O)c2ccc(Cl)cc21 | > 100 µM (inactive) | – | > 100 µM (inactive) | > 100 µM (inactive) | > 100 µM (inactive) | > 100 µM (inactive) | > 100 µM (inactive) | > 100 µM (inactive) | > 100 µM (inactive) | > 100 µM (inactive) | > 100 µM (inactive) | > 100 µM (inactive) | > 100 µM (inactive) | > 100 µM (inactive) | – | > 100 µM (inactive) | > 100 µM (inactive) | > 100 µM (inactive) | > 100 µM (inactive) |
| O=c1cc(NNc2cccc(F)c2)[nH]c(=O)[nH]1 | 16.4 µM (inactive) | 22.4 µM (inactive) | – | 95.9 µM (inactive) | > 100 µM (inactive) | 16.3 µM (inactive) | 16.3 µM (inactive) | 27.3 µM (inactive) | > 100 µM (inactive) | 27.9 µM (inactive) | 18.3 µM (inactive) | > 100 µM (inactive) | – | 20.5 µM (inactive) | > 100 µM (inactive) | > 100 µM (inactive) | > 100 µM (inactive) | 18.6 µM (inactive) | 29.4 µM (inactive) |
| CCCCCCOC(=O)/C=C/[C@]1(CO)C/C(=C/CC(C(C)C)C(C)C)C(=O)O1 | 10.9 µM (inactive) | – | 1.28 µM (inactive) | 2.2 µM (inactive) | 8.41 µM (inactive) | 12.1 µM (inactive) | 7.33 µM (inactive) | 0.406 µM (active) | 16 µM (inactive) | 1.58 µM (inactive) | 12.3 µM (inactive) | 19.1 µM (inactive) | 16.7 µM (inactive) | 18.2 µM (inactive) | 2.13 µM (inactive) | – | 10.5 µM (inactive) | 12.5 µM (inactive) | 4.46 µM (inactive) |
